In assay [1] the test system is tetracycline aptamer (SMFS construct) (RNA, aptamer) GGCAGGGCUGACGUAGUUGGAGUGGUGCGGGAGGAUAUAGUAAUCUGCAAAACAUACCAGAUGAAAAUCUGGAGAGGUGAAGAAUACGACCACCUGCAGAUUACUAUAUAGUGAGGGCAGAAUUCAGGUG
The assay is described as follows: optical tweezers force ramp. Particulars: 250 mM KCl, 20 mM NaCl, 5 mM MgCl2; 40 mM HEPES pH 7.4, ~25 °C; P1 unfolding force increased.

The subject of assay [2] is G12 (RNA, aptamer) GGGCAACUCCAAGCUAGAUCUACCGGUAAUUUAGGUCAUUGAGUGAACAGACGUCAAGCUAGUUGGGCUACUGGCUUCUAAAACACAGGUAAAAUG
In words: fluorescence titration (intrinsic fluorescence). Particulars: K+ (20 mM KPO4), 100 mM NaCl, 10 mM MgCl2, pH 7.5.

Assay [3] relates to G12 long stem (SMFS construct) (RNA, aptamer) GGCAGGGCUGACGUAGUUGGAGUGGUGCGGGAGGGGAGUAAUCUCGGUCAUUGAGUGAACAGACGUCAAGCUAGUUGGGCUACUGGCUUCGAGAUUACUCCAGUGAGGGCAGAAUUCAGGUG
In words: optical tweezers force ramp. To be noted: 250 mM KCl, 20 mM NaCl, 5 mM MgCl2; 40 mM HEPES pH 7.4, ~25 °C; intermediate I1 stabilised as in short stem.

The test system of assay [4] is G12 short stem (SMFS construct) (RNA, aptamer) GGCAGGGCUGACGUAGUUGGAGUGGUGCGGGAGGCCGUGGUCAUUGAGUGAACAGACGUCAAGCUAGUUGGGCUACUGGCUUCACGGAGUGAGGGCAGAAUUCAGGUG
The assay is described as follows: optical tweezers force-jump, koff/kon. Particulars: 250 mM KCl, 20 mM NaCl, 5 mM MgCl2; 40 mM HEPES pH 7.4, ~25 °C; near-zero force; koff 0.0055 s-1, kon 0.42 s-1 µM-1.

For assay [5], the system named is G12 no stem (SMFS construct) (RNA, aptamer) GGCAGGGCUGACGUAGUUGGAGUGGUGCGGGAGGGUCAUUGAGUGAACAGACGUCAAGCUAGUUGGGCUACUGGCUUAGUGAGGGCAGAAUUCAGGUG
The assay is described as follows: optical tweezers passive mode, koff/kon. To be noted: 250 mM KCl, 20 mM NaCl, 5 mM MgCl2; 40 mM HEPES pH 7.4, ~25 °C; extrapolated to zero force; koff 6.0 s-1.

Assay [6] has as its system G12 (RNA, aptamer) GGGCAACUCCAAGCUAGAUCUACCGGUAAUUUAGGUCAUUGAGUGAACAGACGUCAAGCUAGUUGGGCUACUGGCUUCUAAAACACAGGUAAAAUG
In words: fluorescence titration, Hill fit (ex 375 nm, em 530 nm). Particulars: 20 °C; 10 nM doxycycline.

On to `CN(C)[C@@H]1C(=O)C(C(N)=O)=C(O)[C@@]2(O)C(=O)C3=C(O)c4c(O)cccc4[C@@](C)(O)[C@H]3C[C@@H]12`, for which the results for the binding entry in assay [1] and in assay [2] (1 nM tetracycline) were “yes” and “no”, respectively.

For `CN(C)[C@@H]1C(O)=C(C(N)=O)C(=O)[C@@]2(O)C(O)=C3C(=O)c4c(O)ccc(Cl)c4[C@@](C)(O)[C@H]3C[C@@H]12`, the binding entry in assay [2] (5 nM 7-chloro-tetracycline) is reported as “no”.

As for `CN(C)[C@@H]1C(O)=C(C(N)=O)C(=O)[C@@]2(O)C(O)=C3C(=O)c4c(O)cccc4C[C@H]3C[C@@H]12`, the binding result in assay [2] (5 nM sancycline) is recorded as “no”. Take `CN(C)c1ccc(O)c2c1C[C@H]1C[C@H]3[C@H](N(C)C)C(O)=C(C(N)=O)C(=O)[C@@]3(O)C(O)=C1C2=O`: the binding result in assay [2] (20 nM minocycline) is “no”. Usually KD stands for the constant that tells how readily two partners part at equilibrium. Take `C[C@H]1c2cccc(O)c2C(=O)C2=C(O)[C@]3(O)C(=O)C(C(N)=O)=C(O)[C@@H](N(C)C)[C@@H]3[C@@H](O)[C@@H]21`: in assay [3], the binding entry is recorded as “yes”. Besides, the “KD,0” value is 13.1 nM in assay [4] and 3800 nM in assay [5]. This compound had a dissociation constant (KD) in assay [6] of 2.8 nM. Take `Cc1c2c(c(O)c3c(O)cccc13)C(=O)[C@]1(O)C(O)=C(C(N)=O)C(=O)[C@@H](N(C)C)[C@@H]1C2`: the binding result in assay [2] (20 nM anhydrotetracycline) is listed as “no”.

Source of the values: publication PMC13434769 (2026).
